Literature values, collected in patent EP0262930B1, “Process for forming a colour positive image” (KONICA CORPORATION, priority 1986, dated 1988).

details: partition coefficient n-octanol/water; solvents not desired in the color developing solution

SMILES | log P
OCCOCc1ccccc1 [2-Benzyloxyethanol] | log P 0.41
CCCCOCCOCCO [Diethylene glycol monobutyl ether] | log P 0.41.
CCCCCO [1-Pentanol] | log P 0.4 or more
OCc1ccc(O)cc1 [p-Hydroxybenzyl alcohol] | log P 0.4 or more
Cc1ccc(CO)cc1 [p-Tolylcarbinol] | log P 1.36
OCc1ccccc1 [Benzyl alcohol] | log P 1.0
NCc1ccccc1 [Benzylamine] | log P 0.4 or more
Oc1ccccc1 [Phenol] | log P 0.4 or more
